According to US20260356860A1, “2-SUBSTITUTED 3,4A,5,7,8,8A-HEXAHYDRO-4H-THIOPYRANO[4,3-DJPYRIMIDIN-4-ONES FOR WOUND TREATMENT” (priority 2022, published 2026):
pIC50: −log10 of the molar value.

Experiments:
[1] = tested on: HEK293 SuperTOPFlash reporter cells, Wnt promoter; assay: HEK CELL Wnt Assay (luciferase reporter); assay type: cell-based; conditions: for pIC50: serial dilutions, with or without 50 ng/mL Wnt3a, 18 h
Procedure: In order to determine the effect of the compounds of Formula (I) on Wnt inhibition, an in vitro assay using HEK293 SuperTOPFlash reporter cells, with the Wnt promoter driving a luciferase reporter gene, were utilized. 40,000 HEK293 SuperTOPFlash reporter cells were seeded, per well, in a 48 well plate for 24 hours, prior to administration of serial dilutions of the compound of Formula (I) to individual wells. Serial dilutions ranging from […] to 1 nM of the compound of Formula (I) were added with or without 50 ng/mL Wnt3a (Time Biosciences) and allowed to incubate with the reporter cells for 18 hours. Reporter cells with no treatment were used as negative control.

[2] = molecular target: T1, Tankyrase 2 (TNKS2) (Homo sapiens, UniProt Q9H2K2); assay: TNK2 Binding Assay (Tankyrase 2 ribosylation, chemiluminescence); assay type: biochemical
T1 sequence (Q9H2K2 1-1166): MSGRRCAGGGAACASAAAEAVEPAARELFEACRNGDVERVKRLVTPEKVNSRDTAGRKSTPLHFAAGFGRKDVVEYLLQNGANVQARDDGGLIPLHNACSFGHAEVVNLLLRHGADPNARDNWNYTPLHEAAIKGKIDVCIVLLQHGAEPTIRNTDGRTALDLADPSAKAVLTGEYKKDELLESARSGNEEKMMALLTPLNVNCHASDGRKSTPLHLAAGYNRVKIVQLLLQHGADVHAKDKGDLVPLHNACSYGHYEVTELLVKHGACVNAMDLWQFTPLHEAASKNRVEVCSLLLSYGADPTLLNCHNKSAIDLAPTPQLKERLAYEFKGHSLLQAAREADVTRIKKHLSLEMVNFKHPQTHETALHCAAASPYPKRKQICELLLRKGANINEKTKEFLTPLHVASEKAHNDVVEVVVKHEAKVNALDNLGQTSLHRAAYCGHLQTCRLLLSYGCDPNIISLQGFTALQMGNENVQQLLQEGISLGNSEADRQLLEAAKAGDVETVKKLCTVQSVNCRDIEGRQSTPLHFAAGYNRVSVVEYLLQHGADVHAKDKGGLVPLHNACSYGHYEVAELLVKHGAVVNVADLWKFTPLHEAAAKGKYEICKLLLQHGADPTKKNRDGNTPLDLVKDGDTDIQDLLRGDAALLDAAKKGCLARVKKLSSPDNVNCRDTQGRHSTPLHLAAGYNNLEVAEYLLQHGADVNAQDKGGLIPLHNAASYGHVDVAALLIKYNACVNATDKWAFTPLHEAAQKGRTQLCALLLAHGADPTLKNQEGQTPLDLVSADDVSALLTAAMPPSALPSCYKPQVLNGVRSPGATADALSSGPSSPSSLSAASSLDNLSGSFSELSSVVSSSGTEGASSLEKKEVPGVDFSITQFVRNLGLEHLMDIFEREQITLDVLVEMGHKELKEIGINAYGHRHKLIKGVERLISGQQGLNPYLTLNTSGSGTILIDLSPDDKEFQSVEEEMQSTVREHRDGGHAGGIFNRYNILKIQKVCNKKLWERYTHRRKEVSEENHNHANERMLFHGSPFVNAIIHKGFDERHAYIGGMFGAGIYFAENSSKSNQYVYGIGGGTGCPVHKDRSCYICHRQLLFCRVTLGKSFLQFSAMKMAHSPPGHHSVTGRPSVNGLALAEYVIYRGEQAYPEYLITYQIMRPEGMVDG
Procedure: Tankyrase 2 assay (n=3) was performed with the following steps: step 1, coating a 96-well plate with 50 μL/well of histone solution; step 2, conducting ribosylation reaction; and step 3, detection.
Step 1: Coating a 96-Well Plate with 50 μL/Well of Histone Solution.
A 5× histone mixture was diluted 1:5 with PBS to make a 1× histone in PBS mixture. 50 μL of the histone mixture was added to each well and incubated at 4° C. overnight. The plate was washed three times using 200 μL PBST buffer (1×PBS containing 0.05% Tween*20 (polysorbate 20) per well. The plate was tapped onto a clean paper towel to remove the liquid. The wells were blocked by adding 200 μL of blocking buffer 3 to each well. The plate was incubated at room temperature for at least 90 minutes. The plate was washed three times with 200 μL PBST buffer. The plate was tapped onto a clean paper towel to remove the liquid.
A fresh solution of 10 mM DTT in water was prepared.
A master mix was prepared and delivered to each well (25 μL/well). Master mix delivered to each well: (2.5 μL of 10×PARP assay buffer (purchased from BPS Bioscience)+2.5 μL of PARP substrate mixture 2+17.5 μL of water+2.5 μL of 10 mM fresh DTT). The concentration of DTT in the master mix was 1 mM. 25 μL of master mix was added to each well.
1×PARP buffer with DTT was prepared. 10×PARP assay buffer was diluted to 1×PARP assay buffer containing DTT by adding 1 volume of 10×PARP assay buffer+1 volume of 10 mM DTT+8 volumes of water. The concentration of DTT in the 1×PARP assay buffer was 1 mM.
5 μL of a test inhibitor was added to each well labeled as “Test Inhibitor.” For the “Positive Control,” the PARP inhibitor, XAV939, was used. For the negative control, no inhibitor is added to the assay mix.
The Tankyrase 2 (TNKS2) enzyme on ice was thawed. The tube containing the enzyme was spun briefly to recover the full content of the tube. The amount of TNKS2 enzyme required for the assay was calculated and the enzyme was diluted to 0.5 ng/μL with 1×PARP assay buffer with DTT. 16) The final concentration of TNKS2 enzyme in the assay was 2 nM. The reaction was initiated by adding 10 μL of diluted TNKS2 enzyme to each well designated “Positive Control” and “Test Inhibitor.” To each well designated as “Blank,” 10 μL of 1×PARP assay buffer with DTT was added. The plate was incubated at room temperature for 1 hour. The plate was washed three times with 100 μL of PBST buffer and the plate was tapped onto a clean paper towel.
1) Streptavidin-HRP was diluted 1:50 in Blocking buffer (purchased from BPS Bioscience) 3.50 μL of diluted Streptavidin-RP was added to each well and incubated for 30 minutes at room temperature. The plate was washed three times with 100 μL of PBST buffer and tapped onto a clean paper towel. Just before use, 1 volume of ELISA ECL Substrate A and 1 volume of ELISA ECL Substrate B were mixed on ice; and 100 μL was added to each well. Immediately, the plate was read in a luminometer or microtiter-plate reader capable of reading chemiluminescence. The “Blank” value was subtracted from all other values.

Compound | pIC50 [2] | further results
O=c1[nH]c(-c2ccc(-c3ccc(Br)cc3)cc2)nc2c1CSCC2 |  | pIC50 [1]: 7.00
N#Cc1ccc2c(c1)[nH]c(=O)n2[C@H]1C[C@H](c2nc3c(c(=O)[nH]2)CSCC3)C1 [Compound 2, 2-oxo-1-((1r,3r)-3-(4-oxo-3,5,7,8-tetrahydro-4H-thiopyrano[4,3-d]pyrimidin-2-yl)cyclobutyl)-2,3-dihydro-1H-benzo[d]imidazole-5-carbonitrile] |  | HEK CELL Wnt inhibition ([1]; @ >10,000 nM): 60% inhibition @ >10,000 nM
O=c1[nH]c(/C=C/c2ccc(C(F)(F)F)c(B(O)O)c2)nc2c1CSCC2 [Compound 5, (E)-(5-(2-(4-oxo-3,5,7,8-tetrahydro-4H-thiopyrano[4,3-d]pyrimidin-2-yl)vinyl)-2-(trifluoromethyl)phenyl)boronic acid] |  | pIC50 [1]: 5.30
O=c1[nH]c(-c2ccc(-c3ccc(Br)nc3)c(F)c2)nc2c1CSCC2 [Compound 20, 2-(4-(6-bromopyridin-3-yl)-3-fluorophenyl)-3,5,7,8-tetrahydro-4H-thiopyrano[4,3-d]pyrimidin-4-one] | 8.40 | 
O=c1[nH]c(-c2ccc(-c3ccnc(Br)c3)cc2)nc2c1CSCC2 [Compound 23, 2-(4-(2-bromopyridin-4-yl)phenyl)-3,5,7,8-tetrahydro-4H-thiopyrano[4,3-d]pyrimidin-4-one] | 7.85 | 
O=c1[nH]c(-c2ccc(B(O)O)c(O)c2)nc2c1CSCC2 [Compound 30, (2-hydroxy-4-(4-oxo-3,5,7,8-tetrahydro-4H-thiopyrano[4,3-d]pyrimidin-2-yl)phenyl)boronic acid] | 7.70 | 
O=c1[nH]c(-c2ccc(B(O)O)cc2O)nc2c1CSCC2 [Compound 31, (3-hydroxy-4-(4-oxo-3,5,7,8-tetrahydro-4H-thiopyrano[4,3-d]pyrimidin-2-yl)phenyl)boronic acid] | 5.45 | 
N#Cc1cc(-c2ccc(B(O)O)cc2)ccc1-c1nc2c(c(=O)[nH]1)CSCC2 [Compound 36, (3′-cyano-4′-(4-oxo-3,5,7,8-tetrahydro-4H-thiopyrano[4,3-d]pyrimidin-2-yl)-[1,1′-biphenyl]-4-yl)boronic acid] | 7.54 | 
N#Cc1cc(B(O)O)ccc1-c1nc2c(c(=O)[nH]1)CSCC2 [Compound 37, (3-cyano-4-(4-oxo-3,5,7,8-tetrahydro-4H-thiopyrano[4,3-d]pyrimidin-2-yl)phenyl)boronic acid] | 7.80 | 
O=c1[nH]c(-c2ccc(B(O)O)cc2Cl)nc2c1CSCC2 [Compound 40, (3-chloro-4-(4-oxo-3,5,7,8-tetrahydro-4H-thiopyrano[4,3-d]pyrimidin-2-yl)phenyl)boronic acid] | 6.35 | 
O=c1[nH]c(N2CCN(c3ccc(B(O)O)cc3)CC2)nc2c1CSCC2 [Compound 41, (4-(4-(4-oxo-3,5,7,8-tetrahydro-4H-thiopyrano[4,3-d]pyrimidin-2-yl)piperazin-1-yl)phenyl)boronic acid] | 8.06 | 
CC1(C)OB(O)c2ccc(-c3nc4c(c(=O)[nH]3)CSCC4)cc21 [Compound 44, 2-(1-hydroxy-3,3-dimethyl-1,3-dihydrobenzo[c][1,2]oxaborol-5-yl)-3,5,7,8-tetrahydro-4H-thiopyrano[4,3-d]pyrimidin-4-one] | 6.20 | 

Continued, in another order:

pIC50 [2] | Compound | further results
7.05 | CC(C)(OCCO)c1c(F)cc(-c2nc3c(c(=O)[nH]2)CSCC3)cc1F [Compound 15, 2-(3,5-difluoro-4-(2-(2-hydroxyethoxy)propan-2-yl)phenyl)-3,5,7,8-tetrahydro-4H-thiopyrano[4,3-d]pyrimidin-4-one] | 
6.95 | COc1cc(-c2nc3c(c(=O)[nH]2)CSCC3)ccc1B(O)O [Compound 32, (2-methoxy-4-(4-oxo-3,5,7,8-tetrahydro-4H-thiopyrano[4,3-d]pyrimidin-2-yl)phenyl)boronic acid] | 
7.92 | COC(=O)NCCOC(C)(C)c1ccc(-c2nc3c(c(=O)[nH]2)CSCC3)cc1O [Compound 33, methyl (2-((2-(2-hydroxy-4-(4-oxo-3,5,7,8-tetrahydro-4H-thiopyrano[4,3-d]pyrimidin-2-yl)phenyl)propan-2-yl)oxy)ethyl)carbamate] | 
6.79 | COC(=O)NCCOC(C)(C)c1ccc(-c2nc3c(c(=O)[nH]2)CSCC3)cc1OC [Compound 34, methyl (2-((2-(2-methoxy-4-(4-oxo-3,5,7,8-tetrahydro-4H-thiopyrano[4,3-d]pyrimidin-2-yl)phenyl)propan-2-yl)oxy)ethyl)carbamate] | 
7.89 | COC(=O)NCCOC(C)(C)c1ccc(-c2nc3c(c(=O)[nH]2)CSCC3)cc1C [Compound 35, methyl (2-((2-(2-methyl-4-(4-oxo-3,5,7,8-tetrahydro-4H-thiopyrano[4,3-d]pyrimidin-2-yl)phenyl)propan-2-yl)oxy)ethyl)carbamate] | 
7.14 | COC(=O)NCCOC(C)(C)c1ccc(-c2nc3c(c(=O)[nH]2)CSCC3)c(C#N)c1 [Compound 38, methyl (2-((2-(3-cyano-4-(4-oxo-3,5,7,8-tetrahydro-4H-thiopyrano[4,3-d]pyrimidin-2-yl)phenyl)propan-2-yl)oxy)ethyl)carbamate] | 
6.19 | COC(=O)NCCOC(C)(C)c1ccc(-c2nc3c(c(=O)[nH]2)CSCC3)cc1C#N [Compound 39, methyl (2-((2-(2-cyano-4-(4-oxo-3,5,7,8-tetrahydro-4H-thiopyrano[4,3-d]pyrimidin-2-yl)phenyl)propan-2-yl)oxy)ethyl)carbamate] | 
8.01 | O=c1[nH]c(N2CCN(c3c(F)cc(OCCO)cc3F)CC2)nc2c1CSCC2 [Compound 42, 2-(4-(2,6-difluoro-4-(2-hydroxyethoxy)phenyl)piperazin-1-yl)-3,5,7,8-tetrahydro-4H-thiopyrano[4,3-d]pyrimidin-4-one] | 
